Read-outs that look alike come from different tables or passages of the source.
Legend:
[1] = tested on: serotonin uptake, human blood platelets; assay: Inhibition of serotonin uptake by human blood platelets; assay type: cell-based; conditions: Platelet, read-out: Inhibition of serotonin uptake I50
Description: It is known that serotonin uptake by the blood platelets is a good model of the uptake of this amine by the neurons (cf. J. Tuomisto, J. Pharm., Pharmac., 26, 92 (1974). When applied to the study of medicaments, a method involving the use of blood platelets is of great interest because it allows the use of human cells so that its anticipation character is good.
The capacity of products to inhibit serotonin uptake or to induce serotonin release, was shown on human blood platelets, according to J. L. David and Coll. "Platelets Function and Thrombosis, a Review of Methods" p. 335 (Plenum Press, London, 1972).
1. Inhibition of Serotonin uptake
The results are expressed by a 50% inhibiting dose or I50 which represents the product dose, in micromoles per liter, which reduces the rate of serotonin uptake by 50%.

[2] = tested on: serotonin release, human blood platelets; assay: Serotonin release from human blood platelets; assay type: cell-based; conditions: Platelet, product concentration 5 × 10^-5 moles per liter, relative to controls, read-out: Percent of increased serotonin release
Description: "Platelets Function and Thrombosis, a Review of Methods" p.
The action of the products on serotonin release is tested at a concentration of 5×10^-5 moles per liter.

[3] = Acute oral toxicity in male CD1 mice; conditions: mouse, in vivo, 3 days of observation
Description: The acute toxicity of the products has been established in the male CD1 (Charles RIVER) mice following oral administration. The LD50 calculated following 3 days of observation by the cumulative method of J. J. Reed and Coll. (Am. J. Hyg. 27, 493-1938) is 600 mg/kg for compounds of Examples 1 and 2 and about 400 mg/kg for the compound of Example 4.

SMILES | IC50 ([1]; Homo sapiens) [nM] | activation at 50 µM [2] [%] | LD50 at 72 h [3] [mg/kg] | IC50 ([1]; human blood platelets, dose reducing the rate of serotonin uptake by 50%) [nM]
CC(Cc1c[nH]c2ccccc12)C1=CCNCC1 (stereo not drawn) [Example 2, 3-[2-(1,2,5,6-tetrahydro-4-pyridyl)-2-methyl-ethyl]-indole] | 40 | 68 | 600 | –
CC(Cc1c[nH]c2ccccc12)C1CCNCC1 (stereo not drawn) [Example 4, 3-[2-(4-piperidyl)-2-methyl-ethyl]-indole] | 10 | 76 | ~400 | –
C1=C(CCc2c[nH]c3ccccc23)CCNC1 [Example 1, 3-[2-(1,2,5,6-tetrahydro-4-pyridyl)-ethyl]-indole] | 55 | 85 | 600 | –
c1ccc2c(CCC3CCNCC3)c[nH]c2c1 [Indalpine, 3-[2-(4-piperidyl)-ethyl]-indole, reference compound] | – | 22 | – | 35
CN(C)CCCN1c2ccccc2CCc2ccccc21 [Imipramine, imipramine, reference compound] | 400 | 13 | – | –
CC(N)Cc1ccc(Cl)cc1 (stereo not drawn) [p-chloro-amphetamine, p-chloroamphetamine, reference compound] | 12000 | 51 | – | –

From US4478841A, “3-[2-(Tetra- and Hexa- hydro-4-pyridyl)-ethyl]-indoles and their use as medicaments” (Pharmuka Laboratoires, priority 1981, dated 1984)
